# Results: patent US8632759B2, “Hair restorer” (Cosmo Oil Co., Ltd., priority 2004, dated 2014)
# Tested on: C3H/HeNCrJ mice
# Experiment: Hair growth test on clipped backs of mice
# Assay type: in vivo
# Details: C3H/HeNCrJ mice in telogen phase, n=3; 0.2 ml sprayed on clipped back once a day; hair measured under microscope
# From the text: In Table 1,5-aminolevulinic acid (sometimes abbreviated as ALA) of the present invention and iron compounds, and the blend compositions of them and urea are shown in wt %. For 1 g of ALA, 0.4 g of ferrous citrate, 2.81 g of iron lactate, 5.7 g of iron sodium diethylenetriaminepentaacetate, 5.6 g of iron ammonium diethylenetriaminepentaacetate, and 0.36 g of ferrous gluconate were blended respectively. The body hair on the backs of C3H/HeNCrJ mice (n=3 in each group), which were in telogen phase of hair growth cycle, was clipped with a hair clipper, and each suspension shown in Table 1 was applied to the back once a day, in an amount of 0.2 ml, by spraying uniformly.
# In addition, photographs of the backs of mice on which the sample No. 8 of the present invention, 5% minoxidil (positive control), and distilled water (negative control) were respectively applied were taken 20 days after the application.
row,SMILES,Hair Length after 2 weeks [mm]
1,"Nc1cc(N2CCCCC2)nc(N)[n+]1[O-] [5% Minoxidil, 6-(1-piperidinyl)-2,4-pyrimidinediamine-3-oxide]",1.70
2,"NCC(=O)CCC(=O)O [Control, 5-aminolevulinic acid]",1.08
